Experimental findings from the NIST ThermoML archive (doi:10.1021/acs.jced.5b00807) are described below.

The conditions of data set [1]: DSC. Background: In DSC, transitions show as peaks or steps in heat flow.
Data set [2] can be described thus: Molar enthalpy of transition or fusion. The settings on record: Crystal 2; DSC.

Numbers after ± are expanded uncertainties.

For the compound `CCCCCCCCCCCCCCCC[N+](C)(C)C.O=S(=O)([N-]S(=O)(=O)C(F)(F)F)C(F)(F)F`, the Triple point temperature in data set [1] (Crystal 1) turned out to be 335 ± 4 K; in data set [1] (Crystal 2), 319 ± 4 K. Also, the “Molar enthalpy of transition or fusion” value in data set [2] turned out to be 7.03 ± 0.717 kcal/mol.

`CCCC[N+](CCCC)(CCCC)CCCC.O=S(=O)([N-]S(=O)(=O)C(F)(F)F)C(F)(F)F` [tetrabutylammonium bis[(trifluoromethyl)sulfonyl]imide]: the Triple point temperature in data set [1] (Crystal) was 365 ± 4 K.

Take `O=S(=O)([N-]S(=O)(=O)C(F)(F)F)C(F)(F)F.[Li+]` [lithium bis((trifluoromethyl)sulfonyl)amide]: the Triple point temperature in data set [1] (Crystal 1) is recorded as 508 ± 4 K; in data set [1] (Crystal 2), 422 ± 4 K. Also, the “Molar enthalpy of transition or fusion” value in data set [2] amounted to 2.84 ± 0.287 kcal/mol.

With `CC[N+](C)(C)C.O=S(=O)([N-]S(=O)(=O)C(F)(F)F)C(F)(F)F` [ethyltrimethylammonium bis(trifluoromethylsulfonyl)imide], in data set [1] (Crystal), the Triple point temperature was 383 ± 4 K.
